# Patent publication US5256788A, “Moranoline derivatives and their production and the use of moranoline and its derivatives as a stabilizing agent for enzymes” (Nippon Shinyaku Co. Ltd., priority 1989, dated 1993)
# Experiments:
# [1] = biological target: T1, immobilized CGTase (Geobacillus stearothermophilus, UniProt P31797); assay: Stabilization of immobilized CGTase, sugar transfer continuous reaction of N-methylmoranoline; format: biochemical, Bacillus stearothermophilus; conditions: 3360 h; after 140 days, 55° C., 1.5 w/v% N-methylmoranoline and 9 w/v% soluble starch, 160 ml/day; read-out: activity retained
# T1 construct: purchased Hayashibara Biochemical Research Institute
# T1 sequence (P31797 32-711): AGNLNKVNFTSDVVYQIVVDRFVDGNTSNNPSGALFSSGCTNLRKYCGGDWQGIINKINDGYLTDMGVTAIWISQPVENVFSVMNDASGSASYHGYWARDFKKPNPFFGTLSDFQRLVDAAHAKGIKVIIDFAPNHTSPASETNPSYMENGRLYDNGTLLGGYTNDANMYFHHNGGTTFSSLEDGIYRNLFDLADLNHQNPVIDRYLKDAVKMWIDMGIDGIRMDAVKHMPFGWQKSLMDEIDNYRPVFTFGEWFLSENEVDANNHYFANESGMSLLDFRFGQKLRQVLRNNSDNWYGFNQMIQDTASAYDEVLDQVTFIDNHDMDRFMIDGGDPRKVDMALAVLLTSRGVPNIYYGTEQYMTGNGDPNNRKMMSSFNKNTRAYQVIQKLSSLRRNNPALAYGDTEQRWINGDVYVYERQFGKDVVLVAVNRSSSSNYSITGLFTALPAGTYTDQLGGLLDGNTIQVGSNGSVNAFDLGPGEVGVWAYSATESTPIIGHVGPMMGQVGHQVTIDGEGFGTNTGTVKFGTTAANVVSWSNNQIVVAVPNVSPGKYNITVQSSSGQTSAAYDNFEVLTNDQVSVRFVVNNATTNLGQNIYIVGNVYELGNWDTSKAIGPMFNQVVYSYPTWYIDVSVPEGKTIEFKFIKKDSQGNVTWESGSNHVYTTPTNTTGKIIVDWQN
# Method: (§1) The immobilized CGTase, 20 ml, obtained in Reference Example 1 was packed in a column having a diameter of 1 cm equipped with a jacket and a solution with the pH being not adjusted containing 1.5 w/v% of N-methylmoranoline and 9 w/v% of soluble starch was continuously passed through the column at 55° C. in a passing velocity of 160 ml/day to react them, whereby the reaction progress rate of the passing liquid was determined with passage of time. The reaction progress rate and activity retention rate were determined in a manner similar to Reference 4. The results reveal that even after 140 days, almost 100% of the activity was retained.
# as §1, with “Example A” for “Example 1”, “to Example 27.” for “to Reference 4. The results reveal that even after 140 days, almost 100% of the activity was retained.”
# [2] = biological target: T2, glucoamylase (Rhizopus arrhizus, UniProt P07683); assay: Stabilization of GA (aqueous solution) by moranoline, N-methylmoranoline; format: biochemical, Rhizopus niveus
# T2 construct: maltose substrate
# Method: As the enzyme, Rhizopus niveus-derived reagent glucoamylase manufactured by Seikagaku Kogyo Co., Ltd. was used.
# After 5 mg of the enzyme was dissolved in 1 ml of 0.1M acetate buffer solution (pH 5.0), moranoline and N-methylmoranoline were dissolved in the solution in a concentration of 6000 μg/ml. The solution was charged in a test tube with a screw stopper followed by incubation at 50° C. Each enzyme solution was diluted with 0.1M acetate buffer solution (pH 5.0) to 100-fold and 100 μl of the dilution was taken. After 400 μl of 5% maltose solution (0.05M acetate buffer solution, pH 4.6) was added thereto, the mixture was reacted at 40° C. for 20 minutes. […] Thereafter, the system was ice cooled and absorbency was measured at 500 nm to determine the glucose amount. […] When the initial enzyme activity (amount of glucose produced) was made […], relative enzyme activity was determined. […]
# After 5 mg of the enzyme was dissolved in 1 ml of 0.1M acetate buffer solution (pH 5.0), moranoline and N-methylmoranoline were dissolved in the solution in a concentration of 6000 μg/ml. […] Thereafter, the system was ice cooled and absorbancy was measured at 500 nm to determine the glucose amount. […] When the initial enzyme activity (amount of glucose produced) was made 100, relative enzyme activity was determined. […]
# [3] = system: β-glucosidase; assay: Stabilization of β-glucosidase by moranoline and N-methylmoranoline; format: biochemical; conditions: 6 mg/ml of the hydrochloride, kept at 60° C.
# Method: Test samples were (1) 1 ml of 0.2M buffer solution of β-glucosidase (300 μg/ml) alone, (2) 1 ml of 0.2M buffer solution of β-glucosidase (300 μg/ml) supplemented with 6 mg/ml of moranoline hydrochloride and, (3) 1 ml of 0.2M buffer solution of β-glucosidase (300 μg/ml) supplemented with 6 mg/ml of N-methylmoranoline hydrochloride. These test samples were kept at 60° C. and the residual enzyme activity was measured with passage of time.
# For determination of the enzyme activity, there was used a method measuring absorbancy at 400 nm using […] as a substrate.
# That is, 200 μl of 0.014M p-nitrophenyl-β-D-glucoside, 200 μl of the enzyme solution taken from each sample for sampling with passage of time which was appropriately diluted, and 600 μl of 0.2M acetate buffer solution (pH 4.5) were reacted at 30° C. for 15 minutes. After 2 ml of 0.1M disodium carbonate was added thereto to terminate the reaction, a color was formed and the color was measured at 400 nm. When absorbancy at the initiation of the reaction was made 100, relative absorbancy in each time was defined to be residual activity.
# T2 sequence (P07683 26-604): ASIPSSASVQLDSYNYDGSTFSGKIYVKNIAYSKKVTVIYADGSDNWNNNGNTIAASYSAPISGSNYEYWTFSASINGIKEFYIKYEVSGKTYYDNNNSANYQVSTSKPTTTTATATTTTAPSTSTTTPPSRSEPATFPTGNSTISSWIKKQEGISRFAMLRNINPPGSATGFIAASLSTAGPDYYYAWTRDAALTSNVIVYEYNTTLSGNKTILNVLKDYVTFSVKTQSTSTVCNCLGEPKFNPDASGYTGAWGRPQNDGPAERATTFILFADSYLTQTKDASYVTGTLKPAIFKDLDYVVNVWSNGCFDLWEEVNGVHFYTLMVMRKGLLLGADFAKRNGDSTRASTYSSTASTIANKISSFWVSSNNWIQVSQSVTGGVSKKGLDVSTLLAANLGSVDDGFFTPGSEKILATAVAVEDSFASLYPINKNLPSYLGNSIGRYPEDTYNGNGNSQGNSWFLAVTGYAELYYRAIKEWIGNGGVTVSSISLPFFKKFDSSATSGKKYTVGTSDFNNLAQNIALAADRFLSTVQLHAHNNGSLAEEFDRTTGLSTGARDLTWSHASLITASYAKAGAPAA
smiles,measurement,setting,value
CN1C[C@H](O)[C@@H](O)[C@H](O)[C@H]1CO [N-methylmoranoline],activity at 15000 µg/mL,[1],~100%
same,inhibition of the enzyme activity of glucoamylase,[2],inhibit the enzyme activity of glucoamylase
same,"stabilizing effect (residual activity, FIG. 4)",[3],stabilizing effect
